Experimental data published in patent publication US6833445B2, “Guanidinylation, guanidinoglycosides, uses, and methods of assaying their activity” (The Regents of the University of California, priority 2000, dated 2004).

How the values were obtained:
[1] = target: HIV-1 Rev protein RNA recognition element (RRE); assay: Solid-phase assay: displacement of fluorescent Rev peptide from immobilized RRE; type: binding; details: for (e) Ratio (c)/(b): IC50 with polyA-polyU divided by IC50 without competitor, proportional to RRE selectivity; for change of ratio (c)/(b) upon guanidinylation: decrease = more selective for the RRE than amino precursor; for activity in the presence of competing nucleic acids: competing DNA / tRNA
Source text: To facilitate the discovery of active guanidinoglycosides an assay system using HIV-1 response elements can be used. For example, RRE-specific binders as well as TAR specific binders can be identified using the methods of the present invention. The present invention provides a rapid screening assay and method depicted in FIG. 4. The Rev-RRE assay relies on the release of a fluorescently tagged Rev fragment from an immobilized RRE-Rev complex and can be performed under various stringency levels. The assay can be conducted in the presence of competing RNA molecules, other potential cellular targets, or cellular extracts. Only high affinity ligands can effectively compete with the bound Rev34-50 peptide (Kd is approximately 1 nM), thus releasing the highly fluorescent molecules into solution. Non-selective binders will be scavenged by competitor molecules present in solution.
In one embodiment, the present invention provides an assay for identifying a test compound which binds to RRE. The assay includes an immobilized RRE, a detectably labeled Rev, and a test compound. A test compound that liberates the labeled Rev due to competitive binding to the RRE results in an increase in the labeled Rev in the supernatant of the assay. Accordingly, following incubation of immobilized RRE, a labeled Rev, and a test compound, the supernatant is measured and the amount of label in the supernatant is determined. The amount of label in the supernatant is indicative of the degree or ability of the test compound to bind to the RRE or REV polypeptide. By comparing the amount of label in the supernatant with the amount in a control or standard sample, one can identify a test compound which effectively competes with the Rev for binding to RRE. […] In the depicted embodiment of FIG. 4 the ternary complex containing a fluorescently tagged Rev peptide bound to an immobilized RRE is incubated with the test compound (e.g., a potential competitor, binding agent or inhibitor)under conditions and in the presence of competing RNA molecules n a microcentrifuge filter tube. After incubation, the mixture is filtered and the filtrate is illuminated. In the presence of a strong and selective RRE binder, the fluorescently labeled peptide will be released from the beads into solution and the filtrate will become fluorescent.
The basic principle of the assay systems used to identify compounds that inhibit binding of Rev to RRE or compounds that interact with RRE involves preparing a reaction mixture containing the target (e.g., RRE) and the binding partner (e.g., labeled-Rev) under conditions and for a time sufficient to allow the two to interact and bind, thus form a complex. In order to test a compound for inhibitory activity, the reaction mixture is prepared in the presence and absence of the test compound. The test compound can be initially included in the reaction mixture, or can be added at a time subsequent to the addition of the RRE and its binding partner, Rev. Control reaction mixtures are incubated without the test compound or with a placebo. The presence of labeled-Rev that is not bound to RRE over that amount found in a control or standard sample is indicative of a test compound that competes with Rev for binding to RRE.
A novel solid-phase assembly was used to evaluate the RNA specificity of the new derivatives. This assay relies on the displacement of a fluorescent Rev peptide from a solid-phase immobilized RRE and can be performed in the presence of competing nucleic acids. Table 4 (columns b-d) summarizes the IC50 values determined by this method. By comparing IC50 values measured in the absence of any competitors to the values measured in the presence of DNA or RNA, a quantitative measure for the relative selectivity of each ligand can be made. Aminoglycosides have a substantial affinity to poly A-poly U duplex RNA (compare column b to c, Table 4). […] For neomycin, this ratio increases upon guanidinylation, indicating a lower RRE selectivity. […]

[2] = target: HIV-1 Rev protein RNA recognition element (RRE); assay: Fluorescence anisotropy: displacement of fluorescein-labeled Rev peptide from the RRE in solution; type: binding; details: for increase in inhibitory activity upon guanidinylation relative to the parent compound: fluorescence anisotropy IC50, guanidinylated vs parent
Source text: In a modification of the above assay, the solid support aspect of the above embodiment is removed. The biophysical characteristics of potential inhibitory test compounds can be detected by fluorescence anisotropy as depicted in FIG. 5. The RRE-bound fluorescent peptide has a slower Brownian tumbling motion relative to the free peptide in solution. Upon displacement of the fluorescently labeled Rev from the RRE by a competing inhibitor, a decrease in the anisotropy value is observed. The displacement of the labeled-Rev can be followed by monitoring the anisotropy at the emission wavelength of the Rev34-50-bound fluorophore.
The HIV-1 Rev-RRE interaction was used to examine the impact of guanidinylation upon RNA binding, and to probe the potential antiviral activity of these compounds. The binding of Rev to the RRE (Rev response element) is responsible for the export of unspliced and singly spliced HIV genomic RNA out of the host nucleus. This essential protein-RNA interaction remains an important, and nonutilized, therapeutic target. The high-affinity Rev binding site on the RRE has been localized to the purine-rich bulge. The binding of Rev to the RRE is governed by the arginine-rich fragment, Rev34-50. Key guanidinium groups make direct contacts with the RNA platform and are essential for the specific binding of Rev to the RRE. Fluorescence anisotropy has been employed to determine the affinity of the new derivatives to the RRE in solution. The RRE-bound fluorescent Rev peptide has a slower Brownian tumbling motion relative to the free peptide. Upon displacement of the fluorescein-labeled Rev peptide from the RRE by an inhibitor, a decrease in the anisotropy value is observed. Table 4 (column a) compares the IC50 values of the guanidinoglycosides to the aminoglycosides. Guanidinylation of kanamycin A, kanamycin B, and tobramycin results in a greater than 10-fold increase in inhibitory activity relative to the parent compounds. A 5-fold increase in activity is observed upon guanidinylation of neomycin B and paromomycin.

[3] = system: HIV-1; assay: Inhibition of viral replication in HIV-1-infected CD4+ HeLa cells (plaque formation); type: cell-based
Method: By converting aminoglycosides into guanidinoglycosides the biological activities of these glycosides were dramatically affected. Neomycin B was reported to be an in vivo and in vitro inhibitor of Rev-RRE binding, as well as an effective inhibitor of HIV-1 replication in vivo. The ability of guanidinoneomycin B and guanidinotobramycin to inhibit viral replication in HIV-1-infected CD4+ HeLa cells was measured and compared to the antiviral activities of neomycin B and tobramycin (FIG. 6). As evidenced by the dose-dependent decrease in plaque formation, the guanidinoglycosides inhibit HIV replication with activities approximately 100 times higher than their amino precursors (FIG. 6). The antiviral activity of the guanidinoglycosides may be related to their ability to bind the RRE with high affinity and specificity, thus preventing the HIV-1 Rev-RRE interaction and viral replication.

[4] = 15 ug/mL plasmid DNA (pGEM), read-out: IC50 (d) Solid-Phase + DNA
[5] = 15 ug/mL polyA-polyU duplex RNA, read-out: IC50 (c) Solid-Phase + poly A polyU
[6] = Solid-phase, no competitor (Table 4), read-out: IC50 (b) Solid-Phase
[7] = Fluorescence Anisotropy (Table 4), read-out: IC50 (a) Anisotrophy
[8] = Fluorescence Anisotropy, amino form of the glycoside (Table 3), read-out: IC50 (uM) amino form
[9] = Solid Phase Assay, competing DNA (Table 2), read-out: IC50 with DNA
[10] = Solid Phase Assay, competing tRNA (Table 2), read-out: IC50 with tRNA
[11] = Solid Phase Assay, no competitor (Table 2), read-out: IC50
[12] = Fluorescence Anisotropy, guanidino form of the glycoside (Table 3), read-out: IC50 (uM) guandino form

| Structure (SMILES) | IC50 [1, 4] [µM] | IC50 [1, 5] [µM] | (e) Ratio (c)/(b) [1] | IC50 [1, 6] [µM] | change of ratio (c)/(b) upon guanidinylation [1] | IC50 [2, 7] [µM] | IC50 [2, 8] [µM] | increase in inhibitory activity upon guanidinylation relative to the parent compound [2] [fold] | IC50 [1, 9] [µM] | IC50 [1, 10] [µM] | IC50 [1, 11] [µM] | activity in the presence of competing nucleic acids ([1]; solid phase assay) | IC50 [2, 12] [µM] | inhibition of HIV replication, activity relative to parent aminoglycoside [3] | more active when compared to tobramycin that has not been guanidinylated ([1]; solid phase assay) |
| --- | --- | --- | --- | --- | --- | --- | --- | --- | --- | --- | --- | --- | --- | --- | --- |
| NC[C@H]1O[C@H](O[C@H]2[C@H](O)[C@@H](O[C@H]3O[C@H](CO)[C@@H](O)[C@H](N)[C@H]3O)[C@H](N)C[C@@H]2N)[C@H](O)[C@@H](O)[C@@H]1O [KanamycinA, Kanamycin A] | 750 | 1300 | 1.9 | 700 | decreases | 750 | 100 |  |  |  |  |  |  |  |  |
| NC[C@H]1O[C@H](O[C@H]2[C@H](O)[C@@H](O[C@H]3O[C@H](CO)[C@@H](O)[C@H](N)[C@H]3O)[C@H](N)C[C@@H]2N)[C@H](N)[C@@H](O)[C@@H]1O [KanamycinB, Kanamycin B] | 90 | 160 | 2.0 | 80 | decreases | 80 |  |  |  |  |  |  |  |  |  |
| NC[C@@H]1O[C@H](O[C@H]2[C@@H](O)[C@H](O[C@@H]3[C@@H](O)[C@H](N)C[C@H](N)[C@H]3O[C@H]3O[C@H](CN)[C@@H](O)[C@H](O)[C@H]3N)O[C@@H]2CO)[C@H](N)[C@@H](O)[C@@H]1O [Neomycin B, Neomycin] | 8 | 16 | 2.7 | 6 | increases | 6 | 1 | 5 |  |  |  |  |  |  |  |
| NC[C@@H]1O[C@H](O[C@H]2[C@@H](O)[C@H](O[C@@H]3[C@@H](O)[C@H](N)C[C@H](N)[C@H]3O[C@H]3O[C@H](CO)[C@@H](O)[C@H](O)[C@H]3N)O[C@@H]2CO)[C@H](N)[C@@H](O)[C@@H]1O [Paromomycin] | 60 | 110 | 2.0 | 55 | decreases | 65 |  | 5 |  |  |  |  |  |  |  |
| NC[C@H]1O[C@H](O[C@H]2[C@H](O)[C@@H](O[C@H]3O[C@H](CO)[C@@H](O)[C@H](N)[C@H]3O)[C@H](N)C[C@@H]2N)[C@H](N)C[C@@H]1O [Tobramycin] | 50 | 140 | 3.1 | 45 | decreases | 44 | 10 |  | 55 | 1.1 | 50 | significantly lower activity in the presence of tRNA |  |  |  |
| NC(N)=NC[C@@H]1O[C@H](O[C@H]2[C@H](O)[C@@H](O[C@H]3O[C@@H](CO)[C@H](O)[C@@H](N=C(N)N)[C@@H]3O)[C@H](N=C(N)N)C[C@@H]2N=C(N)N)[C@@H](O)[C@H](O)[C@H]1O [guanidino-kanamycinA, Guanidino Kanamycin A] | 55 | 60 | 1.2 | 50 |  | 65 |  |  |  |  |  |  | 8 |  |  |
| N=C(N)NCC1OC(OC2C(NC(=N)N)CC(NC(=N)N)C(OC3OC(CO)C(O)C(NC(=N)N)C3O)C2O)C(NC(=N)N)C(O)C1O (centres unmarked) [guanidino-kanamycinB, Guanidino Kanamycin B] | 3.5 | 4.7 | 1.6 | 3 |  | 3.5 |  |  |  |  |  |  |  |  |  |
| N=C(N)NC[C@@H]1O[C@H](O[C@H]2[C@@H](O)[C@H](O[C@@H]3[C@@H](O)[C@H](NC(=N)N)C[C@H](NC(=N)N)[C@H]3O[C@H]3O[C@H](CNC(=N)N)[C@@H](O)[C@H](O)[C@H]3NC(=N)N)O[C@@H]2CO)[C@H](NC(=N)N)[C@@H](O)[C@@H]1O [guanidino-neomycin B, Guanidino Neomycin] | 0.9 | 4.5 | 5.6 | 0.8 |  | 1.3 |  |  |  |  |  |  | 0.2 | approximately 100 times |  |
| N=C(N)NCC1OC(OC2C(CO)OC(OC3C(O)C(NC(=N)N)CC(NC(=N)N)C3OC3OC(CO)C(O)C(O)C3NC(=N)N)C2O)C(NC(=N)N)C(O)C1O (centres unmarked) [guanidino-paromomycin, Guanidino Paromomycin] | 16 | 20 | 1.4 | 14 |  | 18 |  |  |  |  |  |  |  |  |  |
| N=C(N)NCC1OC(OC2C(NC(=N)N)CC(NC(=N)N)C(OC3OC(CO)C(O)C(NC(=N)N)C3O)C2O)C(NC(=N)N)CC1O (centres unmarked) [guanidino-tobramycin] | 3.5 | 5 | 1.7 | 3 |  | 3.8 |  |  | 3 | 3.5 | 2.5 | approximately the same activity in the presence of both competing DNA and tRNA | 0.65 | approximately 100 times | about 20 fold |
